Measurements: patent US20080318931A1, “Treatment of Disorders and Diseases of the Colon” (priority 2004, published 2008)
“Also recorded” adds a separate entry of the source.

Key:
[1] = test system: ConA-induced mouse splenocytes; assay: Con-A-induced mouse splenocyte proliferation/viability, alamar blue; format: cell-based; conditions: for ConA (mitogen)-induced splenocyte proliferation: 2.5-10 μM, alamar blue; for cytotoxicity at 20 µM: Mus musculus, Splenocyte, read-out: inhibition of cell viability
Experimental: (§1) Mouse splenocytes were isolated from C57b1 healthy female mice. Cells (10,000/well) were tested under basal and ConA stimulation. Cells were treated with vehicle, dexamethasone or antidepressants (2.5-10 μM). Viability was assessed 48 hr later using alamar blue staining. (Reagents were manufactured by Wildflower, Santa Fe, N. Mex., USA.) Alamar blue assay was performed as in Nociari et al (1998).
(§2) Effect of paroxetine, (SSRI) and clomipramine (TCA) as compared to dexamethasone on Con-A-induced splenocyte proliferation (alamar blue method), and splenocyte-induced secretion of TH1 cytokines TNF-α, IL2 and INFγ, 1×10^6 cells/well, was measured 48 hours after exposure to drugs (2.5-10 μM).
In particular, mouse splenocytes were isolated from C57BL healthy female mice. Cells (10,000/well) were then exposed to Con-A (5 μM) and treated with either the vehicle, with dexamethasone or with a drug (2.5-10 μM).
Cell viability was assessed 48 hr later using Alamar blue staining. The results are presented in FIG. 4, where each point is the graph represents the mean of 4 determinations. […]. The IC50 determined for the antidepressant drugs was in the range of 2.5-5.5 μM.
Cells were treated with vehicle, or the antidepressants (2.5-20 μM). Viability was assessed 48 hours later using alamar blue staining. (Each point is the mean+/−SEM of 4 determinations).

human PBMC = assay: Viability of LPS-exposed human PBMC, alamar blue; format: cell-based; conditions: LPS 2 ug/well, 2.5-30 μM, 48 hours, both subjects
Experimental: Human PBMC were isolated from whole blood of 2 healthy volunteers (A and B subjects). Cells (2×10^6/ml) were exposed to LPS (2 ug/well) and treated with either the vehicle, or with paroxetine, sertraline, clomipramine and trifluoperazine (2.5-30 μM).

[2] = test system: mouse splenocytes (basal); assay: Basal mouse splenocyte viability, alamar blue; format: cell-based; conditions: 2.5-10 μM, 48 hr
Experimental: as §1

[3] = test system: Human Colon carcinoma (HT29) cell-line; assay: Viability of human colon carcinoma HT29 cells, alamar blue and neutral red; format: cell-based; conditions: for inhibition of cell viability: 10-30 μM, FIG. 14; for cell viability / responsiveness of HT29 cells: FIG. 13
Experimental: Human Colon carcinoma (HT29) cell-line (ATCC USA) was maintained in RPMI medium supplemented with 10% fetal calf serum and penicillin (100 u/ml), streptomycin (100 mcg/ml), nystatin (12.5 u/ml), L-glutamine (2 mM). Confluent cultures were washed with phosphate-buffered saline (PBS), detached with trypsine (0.25%), centrifuged, and subcultured in 96-well microtiter test plates. Cells were exposed to vehicle or to psychotropic drugs. Cell viability was measured 24 hours later using the alamar blue and neutral red methods. Results were expressed as % of controls (vehicle treated cells). Each sample is the Mean+/−[…] of 4 determinations.

[4] = test system: TH1 cytokines TNF-α, IL2 and INFγ; assay: TH1 cytokine secretion (TNF-α, IL2, INFγ) from Con-A-induced splenocytes, ELISA; format: cell-based, mouse; conditions: 2.5-10 μM, 48 hours, 1×10^6 cells/well
Experimental: as §2
Cytokines were determined in the supernatant of the splenocyte specimens using an ELISA kit and protocol (Reagents by Cytolab). […] The pattern observed resembles that of dexamethasone.

[5] = test system: splenocytes derived from treated mice; assay: ConA/basal proliferation ratio of splenocytes from mice treated in vivo for 7 days; parameters: species or system mouse; conditions: paroxetine 7.5, clomipramine 15 mg/kg x3/week i.p., Con A 5 μM in vitro
Experimental: Paroxetine or clomipramine were administered at 7.5 and 15 mg/kg x3/week i.p, respectively. Splenocytes were derived from treated animals.
Each group represents the mean of a pool of 5 animals.

C-jun = C-jun expression in HT29 cells, western blot; format: cell-based, human; conditions: 10 and 20 μM, 24 hr
Experimental: (§3) The effect of paroxetine and sertraline on the expression of bcl-2 and C-jun was evaluated in human colon HT29 cell-line 24 hr after drug administration, using western blot analysis for C-jun and bcl-2 and specific antibodies.

[6] = test system: Con-A activated splenocytes; conditions: 5 μM
Experimental: (§4) LPS (manufactured by Sigma St. Louis Mo., USA, cat no L2880) was administered at 100 μg/mouse×2, on day 7 and day 14).

[7] = test system: Con-A activated splenocytes; assay: cells; conditions: Mus musculus, Splenocyte, read-out: inhibition of viability, splenocytes from naïve animals
Experimental: as §4

bcl-2 = bcl-2 expression in HT29 cells, western blot; format: cell-based, human; conditions: 10 and 20 μM, 24 hr
Experimental: as §3

Cyclooxygenase-2 (Cox-2) = assay: Cox-2 expression in ConA stimulated mouse splenocytes, Western blot; format: cell-based; conditions: 5 μM, normalized to actin
Experimental: Determination was performed using Western blot analysis and quantitative dencitometry of blot.
For each sample 2×10^7 cells were used. Cells were lysed, and equal amounts of protein was fractionated on polyacrylamide gel and then transferred to PVDF membrane. The amount of the protein was detected by immuno-blotting with […] anti-Cox-2 anti body (Murine anti COX2 Polyclonal Cat. 160126, Ann Arbor, Mich., USA. 2nd antibody conjugated to horseradish peroxidase was used and visualized with chemiluminescent Kit (Pierce, Rockford, Ill., USA) on film. Quantification of blot was performed using a densitometry apparatus (VersaDoc™ imaging system, BioRad, USA) and levels were normalized to actin.

[8] = test system: HT29 human colon cancer tumor; assay: HT29 human colon cancer tumor growth in nude mice; format: in vivo, mouse; conditions: 20 mg/kg s.c ×3/week, after 3 courses
Experimental: The in-vivo anti tumor activity of active antidepressants was assessed in animal model of cancer. Five Nude mice (males, 6 weeks of age) were inoculated with HT29 cells (4,000,000/100 μL) by subcutaneous (s.c.) administration. […] Sertraline therapy was initiated on the 7th day after cell grafting. 3 animals were treated with sertraline (20 mg/kg s.c×3/week) near the cancerous area and 2 animals served as controls.

INF-γ = INF-γ secretion from Con-A activated mouse splenocytes, ELISA; format: cell-based; conditions: Splenocyte; for inhibition at 10 µM: read-out: maximal inhibition of INF-γ
Experimental: INF-γ was determined in the supernatant of the splenocyte specimens using ELISA kit and protocol (Manufactured by Cytolab).

[9] = chitosan capsules, colon targeting technology; cited from earlier work

For `CN(C)CCC=C1c2ccccc2CCc2ccccc21` [amitriptyline], the “maximal inhibition of cell viability” value ([1]; 2.5-20 μM, 48 hours) was 80.7%.
For `CN(C)CCCN1c2ccccc2CCc2ccc(Cl)cc21` [clomipramine], the “order of potency, decrease in cell viability” value (“order of potency, decrease” for short) (human PBMC) was “sertraline>paroxetine>trifluoperazine>/=clomipramine”, the basal splenocyte proliferation [2] was “dose dependent decrease” and the “inhibition of cell viability” value [3] was 38%. The “lymphocyte-induced pro-inflammatory cytokine secretion” value [4] was “decrease”, the “capacity to respond to Con-A (ratio ConA/basal) vs vehicle treated mice” value [5] was “lower capacity to respond to exogenous stimulus of Con-A” and the “ConA (mitogen)-induced splenocyte proliferation” value ([1]; 48 hr) was “dose dependent decrease; also recorded: dose-dependent decrease”.
For `CN[C@H]1CC[C@@H](c2ccc(Cl)c(Cl)c2)c2ccccc21` [sertraline], the “order of potency, decrease” value (human PBMC) was “sertraline>paroxetine>trifluoperazine>/=clomipramine”, the “expression of C-jun” value (C-jun) was “stimulation” and the “response of splenocytes from LPS mice treated in vivo with sertraline” value ([6]; LPS mice + sertraline 5 mg/kg×3/week two weeks) was “more responsive”. The “response of splenocytes from LPS mice” value ([6]; LPS-treated mice) was “in a manner similar to the naive animals”, the cytotoxicity at 5 µM [7] was 40% and the “inhibition of cell viability” value [3] was “up to 75%”. The “expression of bcl-2” value (bcl-2) was “inhibition”, the “reduction of Cox-2 expression” value (Cyclooxygenase-2 (Cox-2)) was 24.3% and the “tumor growth vs untreated controls (1 animal)” value [8] was “prevention of tumor growth”. The “tumor growth vs untreated controls (2 other animals)” value [8] was “decrease in tumor growth”, the “ConA (mitogen)-induced splenocyte proliferation” value ([1]; 48 hr) was “dose-dependent decrease” and the “cell viability compared to dexamethasone” value ([1]; Con-A 5 μM, drug 2.5-10 μM, 48 hr) was “decreased cell viability to the same extent as compared to dexamethasone”.
With `CSc1ccc2c(c1)N(CCC1CCCCN1C)c1ccccc1S2` (stereo not drawn) [thioridazine] the “cell viability / responsiveness of HT29 cells” value (shortened to “cell viability / responsiveness”) ([3]; 24 hours) was “dose dependent decrease” and the cytotoxicity at 20 µM ([3]; Homo sapiens, HT-29, 20 μM, 24 hours, read-out: inhibition of cell viability) was 85%.
For `COCCCC/C(=N\OCCN)c1ccc(C(F)(F)F)cc1` [fluvoxamine], the inhibition at 10 µM (INF-γ) was 51%.
With `COc1cccc2c1C(=O)c1c(O)c3c(c(O)c1C2=O)C[C@@](O)(C(=O)CO)C[C@@H]3O[C@H]1C[C@H](N)[C@H](O)[C@H](C)O1` [doxorubicin] the “cell viability / responsiveness” value ([3]; 24 hours) was “only partial responsiveness”.
`C[C@@H]1C[C@H]2[C@@H]3CCC4=CC(=O)C=C[C@]4(C)[C@@]3(F)[C@@H](O)C[C@]2(C)[C@@]1(O)C(=O)CO` [dexamethasone] gave a cytotoxicity at 5 µM [7] of 60% and an inhibition at 2.5 µM (INF-γ; 2.5 μM) of 83%.
`COc1ccc(C(CN(C)C)C2(O)CCCCC2)cc1` (stereo not drawn) [venlafaxine] gave an inhibition at 10 µM (INF-γ) of 16%.
For `Nc1ccc(O)c(C(=O)O)c1` [mesalamine], the “decrease in systemic exposure” value [9] is given as 50%.
For `CN1CCN(CCCN2c3ccccc3Sc3ccc(C(F)(F)F)cc32)CC1` [trifluoperazine], the “order of potency, decrease” value (human PBMC) was “sertraline>paroxetine>trifluoperazine>/=clomipramine”.
In the case of `OCCN1CCN(CCCN2c3ccccc3Sc3ccc(C(F)(F)F)cc32)CC1` [fluphenazine], the “cell viability / responsiveness” value ([3]; 24 hours) is reported as “dose dependent decrease”.
For `CN(C)CCC=C1c2ccccc2COc2ccccc21` [doxepine], the cytotoxicity at 20 µM ([1]; 48 hours) was 38%.
For `O=c1[nH]cc(F)c(=O)[nH]1` [5FU, 5fluoro uracil], the “cell viability / responsiveness” value ([3]; 24 hours) was “resistance”.
In the case of `OCCN1CCN(CCCN2c3ccccc3Sc3ccc(Cl)cc32)CC1` [perphenazine], the “cell viability / responsiveness” value ([3]; 24 hours) is reported as “dose dependent decrease”.
Compound `CN(C)CCCC1(c2ccc(F)cc2)OCc2cc(C#N)ccc21` (stereo not drawn) [citalopram] has a cytotoxicity at 20 µM ([1]; 48 hours) of 49%.
